{"source": "ChEMBL document CHEMBL4431387", "about": "“Anti-adipogenic and anti-diabetic effects of cis-3',4'-diisovalerylkhellactone isolated from Peucedanum japonicum Thunb leaves in vitro” (Bioorg Med Chem Lett, 2016)", "key": {"3T3-L1 [1]": {"tested_on": "3T3-L1", "test": "Cytotoxicity against mouse 3T3L1 cells assessed as reduction in cell viability at 10 to 50 uM after 48 hrs by SRB assay", "assay_type": "cell-based", "details": "3t3-l1, 48 h"}, "3T3-L1 [2]": {"tested_on": "3T3-L1", "test": "Cytotoxicity against mouse 3T3L1 cells assessed as reduction in cell viability at =<50 uM after 48 hrs by SRB assay", "assay_type": "cell-based", "details": "3t3-l1, 48 h"}, "3T3-L1 [3]": {"tested_on": "3T3-L1", "test": "Antiadipogenic activity in mouse 3T3L1 cells assessed as suppression of adipocyte differentiation at 20 uM after 8 days by oil red o-staining based spectrophotometric analysis", "assay_type": "functional"}, "3T3-L1 [4]": {"tested_on": "3T3-L1", "test": "Antiadipogenic activity in mouse 3T3L1 cells assessed as suppression of adipocyte differentiation at 30 uM after 8 days by oil red o-staining based spectrophotometric analysis", "assay_type": "functional"}, "3T3-L1 [5]": {"tested_on": "3T3-L1", "test": "Antiadipogenic activity in mouse 3T3L1 cells assessed as suppression of adipocyte differentiation at 50 uM after 8 days by oil red o-staining based spectrophotometric analysis", "assay_type": "functional"}, "3T3-L1 [6]": {"tested_on": "3T3-L1", "test": "Antiadipogenic activity in differentiated mouse 3T3L1 cells assessed as reduction in triglyceride levels at 20 uM after 8 days by oil red o-staining based spectrophotometric analysis relative to control", "assay_type": "functional", "set-up": "scale not given: the % may be the effect or the level left"}, "3T3-L1 [7]": {"tested_on": "3T3-L1", "test": "Antiadipogenic activity in differentiated mouse 3T3L1 cells assessed as reduction in triglyceride levels at 30 uM after 8 days by oil red o-staining based spectrophotometric analysis relative to control", "assay_type": "functional", "set-up": "scale not given: the % may be the effect or the level left"}, "3T3-L1 [8]": {"tested_on": "3T3-L1", "test": "Antiadipogenic activity in differentiated mouse 3T3L1 cells assessed as reduction in triglyceride levels at 50 uM after 8 days by oil red o-staining based spectrophotometric analysis relative to control", "assay_type": "functional", "set-up": "scale not given: the % may be the effect or the level left"}, "3T3-L1 [9]": {"tested_on": "3T3-L1", "test": "Induction of glucose uptake in differentiated mouse 3T3L1 cells at 30 uM preincubated for 20 mins followed by 2-deoxyglucose addition measured after 20 mins by fluorescence assay relative to control", "assay_type": "functional"}, "3T3-L1 [10]": {"tested_on": "3T3-L1", "test": "Induction of glucose uptake in differentiated mouse 3T3L1 cells at 50 uM preincubated for 20 mins followed by 2-deoxyglucose addition measured after 20 mins by fluorescence assay relative to control", "assay_type": "functional"}, "[11]": {"target": "Alpha glucosidase (Homo sapiens) (UniProt O43451+P10253+P14410+Q2M2H8)", "test": "Inhibition of alpha-glucosidase (unknown origin) using […]-alpha-D-glucopyranoside as substrate at 10 to 50 uM preincubated for 10 mins followed by substrate addition measured after 5 mins", "assay_type": "protein assay"}, "[12]": {"target": "T1, 5'-AMP-activated protein kinase (Mus musculus) (UniProt Q5EG47+Q8BRK8+Q6PAM0+O54950+Q91WG5+Q9R078+Q8BGM7)", "test": "Induction of AMPK phosphorylation in mouse 3T3L1 cells at 30 uM by SDS-PAGE analysis", "assay_type": "cell-based", "details": "3T3-L1"}, "[13]": {"target": "T1, 5'-AMP-activated protein kinase (Mus musculus)", "test": "Induction of AMPK phosphorylation in mouse 3T3L1 cells at 50 uM by SDS-PAGE analysis", "assay_type": "cell-based", "details": "3T3-L1"}, "3T3-L1 [14]": {"tested_on": "3T3-L1", "test": "Downregulation of C/EBPalpha mRNA expression in mouse 3T3L1 cells by qRT-PCR analysis", "assay_type": "functional, cell-based"}, "3T3-L1 [15]": {"tested_on": "3T3-L1", "test": "Downregulation of PPARgamma mRNA expression in mouse 3T3L1 cells by qRT-PCR analysis", "assay_type": "functional, cell-based"}, "3T3-L1 [16]": {"tested_on": "3T3-L1", "test": "Downregulation of SREBP-1c mRNA expression in mouse 3T3L1 cells by qRT-PCR analysis", "assay_type": "functional, cell-based"}, "3T3-L1 [17]": {"tested_on": "3T3-L1", "test": "Downregulation of C/EBPalpha protein expression in mouse 3T3L1 cells by SDS-PAGE analysis", "assay_type": "functional, cell-based"}, "3T3-L1 [18]": {"tested_on": "3T3-L1", "test": "Downregulation of PPARgamma protein expression in mouse 3T3L1 cells by SDS-PAGE analysis", "assay_type": "functional, cell-based"}, "3T3-L1 [19]": {"tested_on": "3T3-L1", "test": "Downregulation of SREBP-1c protein expression in mouse 3T3L1 cells by SDS-PAGE analysis", "assay_type": "functional, cell-based"}, "3T3-L1 [20]": {"tested_on": "3T3-L1", "test": "Antiadipogenic activity in mouse 3T3L1 cells assessed as suppression of adipocyte differentiation after 8 days by oil red o-staining based spectrophotometric analysis", "assay_type": "functional, cell-based"}}, "note": "Activity calls are given as the source filed them. The rule behind the calls is not given here.", "data": [{"smiles": "CC(C)CC(=O)O[C@@H]1c2c(ccc3ccc(=O)oc23)OC(C)(C)[C@@H]1OC(=O)CC(C)C", "note": "(relative stereo)", "values": [{"measurement": "Activity", "setting": "3T3-L1 [1]", "result": "Non-Toxic"}, {"measurement": "Activity", "setting": "3T3-L1 [2]", "result": "Non-Toxic"}, {"measurement": "Activity", "setting": "3T3-L1 [3]", "result": 33, "unit": "%"}, {"measurement": "Activity", "setting": "3T3-L1 [4]", "result": 71, "unit": "%"}, {"measurement": "Activity", "setting": "3T3-L1 [5]", "result": 80, "unit": "%"}, {"measurement": "Activity", "setting": "3T3-L1 [6]", "result": 44, "unit": "%"}, {"measurement": "Activity", "setting": "3T3-L1 [7]", "result": 67, "unit": "%"}, {"measurement": "Activity", "setting": "3T3-L1 [8]", "result": 65, "unit": "%"}, {"measurement": "Activity", "setting": "3T3-L1 [9]", "result": 43, "unit": "%"}, {"measurement": "Activity", "setting": "3T3-L1 [10]", "result": 57, "unit": "%"}, {"measurement": "inhibition", "setting": "[11]", "result": "Active"}, {"measurement": "Activity", "setting": "[12]", "result": 72, "unit": "%"}, {"measurement": "Activity", "setting": "[13]", "result": 103, "unit": "%"}, {"measurement": "Activity", "setting": "3T3-L1 [14]", "result": "Dose-dependent effect"}, {"measurement": "Activity", "setting": "3T3-L1 [15]", "result": "Dose-dependent effect"}, {"measurement": "Activity", "setting": "3T3-L1 [16]", "result": "Dose-dependent effect"}, {"measurement": "Activity", "setting": "3T3-L1 [17]", "result": "Dose-dependent effect"}, {"measurement": "Activity", "setting": "3T3-L1 [18]", "result": "Dose-dependent effect"}, {"measurement": "Activity", "setting": "3T3-L1 [19]", "result": "Dose-dependent effect"}, {"measurement": "Activity", "setting": "3T3-L1 [20]", "result": "Active"}]}]}
